Measurements taken from patent US12577255B2, “MDM2-based modulators of proteolysis and associated methods of use” (Arvinas Operations, Inc., priority 2015, dated 2026).

molecular target: T1, bromodomain-containing protein 4 (BRD4) (Homo sapiens, UniProt O60885); assay: BRD4 Western blot (degradation); assay type: cell-based; conditions: at 1 μM; VCaP cells, 16 h
T1 construct: VCaP cells were chased from ATCC and cultured in Dulbecco's Modified Eagle's Medium; host or cells: VCaP
Procedure: The following biological assays were performed to evaluate the protein degradation in various cell types using representative compounds disclosed. The degradation of the following proteins were evaluated: bromodomain-containing protein 4 (BRD4), androgen receptor (AR), c-Myc, c-Jun N-terminal kinases (JNK), and enhancer of zeste homolog 2 (EZH2).
VCaP cells were chased from ATCC and cultured in Dulbecco's Modified Eagle's Medium (ATCC), supplemented with 10% FBS (ATCC) and Penicillin/Streptomycin (Life Technologies). DMSO control and compound treatments (0.03 μM to 1 μM) were performed in 12-well plates for 16 h. cells were harvested, and lysed in RIPA buffer (50 mM Tris pH8, 150 mM NaCl, 1% Tx-100, 0.1% SDS, 0.5% sodium deoxycholate) supplemented with protease and phosphatase inhibitors. Lysates were clarified at 16,000 g for 10 minutes, and protein concentration was determined. Equal amount of protein (20 μg) was subjected to SDS-PAGE analysis and followed by immunoblotting according to standard protocols. The antibodies used were BRD4 (Cell signaling #13440), and Actin (Sigma #5441). Detection reagents were Clarity Western ELC substrate (Bio-rad #170-5060).

SMILES | Degradation activity BRD4
COc1cc(C(=O)NCCOCCNC(=O)C[C@@H]2N=C(c3ccc(Cl)cc3)c3c(sc(C)c3C)-n3c(C)nnc32)ccc1NC(=O)C1N[C@@H](CC(C)(C)C)[C@](C#N)(c2ccc(Cl)cc2F)[C@H]1c1cccc(Cl)c1F (stereo partly drawn) [Compound A1890, 3-(3-chloro-2-fluorophenyl)-4-(4-chloro-2-fluorophenyl)-N-(4-{[2-(2-{2-[(9S)-7-(4-chlorophenyl)-4,5,13-trimethyl-3-thia-1,8,11,12-tetraazatricyclo[8.3.0.0^2,^6]-trideca-2(6),4,7,10,12-pentaen-9-yl]acetamido}ethoxy)ethyl]carbamoyl}-2-methoxyphenyl)-4-cyano-5-(2,2-dimethylpropyl)pyrrolidine-2-carboxamide] | C (larger than 50% degradation at 1 μM)
Cc1sc2c(c1C)C(c1ccc(Cl)cc1)=N[C@@H](CC(=O)NCCOCCOCCOCCNC(=O)C1N[C@@H](CC(C)(C)C)[C@](C#N)(c3ccc(Cl)cc3F)[C@H]1c1cccc(Cl)c1F)c1nnc(C)n1-2 (stereo partly drawn) [Compound A1306, N-(2-{2-[2-(2-{[3-(3-chloro-2-fluorophenyl)-4-(4-chloro-2-fluorophenyl)-4-cyano-5-(2,2-dimethylpropyl)pyrrolidin-2-yl]formamido}ethoxy)ethoxy]ethoxy}ethyl)-2-[(9S)-7-(4-chlorophenyl)-4,5,13-trimethyl-3-thia-1,8,11,12-tetraazatricyclo[8.3.0.0^2,^6]trideca-2(6),4,7,10,12-pentaen-9-yl]acetamide] | B (25 to 50% degradation at 1 μM)
Cc1sc2c(c1C)C(c1ccc(Cl)cc1)=N[C@@H](CC(=O)NCCOCCOCCOCCOCCNC(=O)C1N[C@@H](CC(C)(C)C)[C@](C#N)(c3ccc(Cl)cc3F)[C@H]1c1cccc(Cl)c1F)c1nnc(C)n1-2 (stereo partly drawn) [Compound A1307, N-(14-{[3-(3-chloro-2-fluorophenyl)-4-(4-chloro-2-fluorophenyl)-4-cyano-5-(2,2-dimethylpropyl)pyrrolidin-2-yl]formamido}-3,6,9,12-tetraoxatetradecan-1-yl)-2-[(9S)-7-(4-chlorophenyl)-4,5,13-trimethyl-3-thia-1,8,11,12-tetraazatricyclo-[8.3.0.0^2,^6]trideca-2(6),4,7,10,12-pentaen-9-yl]acetamide] | C (larger than 50% degradation at 1 μM)
COc1cc(C(=O)NCCOCCOCCNC(=O)C[C@@H]2N=C(c3ccc(Cl)cc3)c3c(sc(C)c3C)-n3c(C)nnc32)ccc1NC(=O)[C@H]1N[C@H](CC(C)(C)C)[C@@](C#N)(c2ccc(Cl)cc2F)[C@@H]1c1cccc(Cl)c1F [Compound A1865, (2S,3R,4S,5R)-3-(3-chloro-2-fluorophenyl)-4-(4-chloro-2-fluorophenyl)-N-[4-({2-[2-(2-{2-[(9S)-7-(4-chlorophenyl)-4,5,13-trimethyl-3-thia-1,8,11,12-tetraazatricyclo-[8.3.0.0^2,^6]trideca-2(6),4,7,10,12-pentaen-9-yl]acetamido}ethoxy)ethoxy]ethyl}-carbamoyl)-2-methoxyphenyl]-4-cyano-5-(2,2-dimethylpropyl)pyrrolidine-2-carboxamide] | A (0 to 25% degradation at 1 μM)
COc1cc(C(=O)NCCOCCOCCNC(=O)C[C@@H]2N=C(c3ccc(Cl)cc3)c3c(sc(C)c3C)-n3c(C)nnc32)ccc1NC(=O)C1N[C@@H](CC(C)(C)C)[C@](C#N)(c2ccc(Cl)cc2F)[C@H]1c1cccc(Cl)c1F (stereo partly drawn) [Compound A1863, 3-(3-chloro-2-fluorophenyl)-4-(4-chloro-2-fluorophenyl)-N-[4-({2-[2-(2-{2-[(9S)-7-(4-chlorophenyl)-4,5,13-trimethyl-3-thia-1,8,11,12-tetraazatricyclo-[8.3.0.0^2,^6]trideca-2(6),4,7,10,12-pentaen-9-yl]acetamido}ethoxy)ethoxy]-ethyl}carbamoyl)-2-methoxyphenyl]-4-cyano-5-(2,2-dimethylpropyl)pyrrolidine-2-carboxamide] | B (25 to 50% degradation at 1 μM)
Cc1sc2c(c1C)C(c1ccc(Cl)cc1)=N[C@@H](CC(=O)NCCOCCOCCOCCOCCOCCNC(=O)C1NC(CC(C)(C)C)C(C#N)(c3ccc(Cl)cc3F)C1c1cccc(Cl)c1F)c1nnc(C)n1-2 (stereo partly drawn) [Compound A1283, N-(17-{[3-(3-chloro-2-fluorophenyl)-4-(4-chloro-2-fluorophenyl)-4-cyano-5-(2,2-dimethylpropyl)pyrrolidin-2-yl]formamido}-3,6,9,12,15-pentaoxaheptadecan-1-yl)-2-[(9S)-7-(4-chlorophenyl)-4,5,13-trimethyl-3-thia-1,8,11,12-tetraazatricyclo-[8.3.0.0^2,^6]trideea-2(6),4,7,10,12-pentaen-9-yl]acetamide] | B (25 to 50% degradation at 1 μM)

Further lines, results first:

Degradation activity BRD4 | SMILES
C (larger than 50% degradation at 1 μM) | COc1cc(C(=O)NCCOCCOCCOCCOCCNC(=O)C[C@@H]2N=C(c3ccc(Cl)cc3)c3c(sc(C)c3C)-n3c(C)nnc32)ccc1NC(=O)C1N[C@@H](CC(C)(C)C)[C@](C#N)(c2ccc(Cl)cc2F)[C@H]1c1cccc(Cl)c1F (stereo partly drawn) [Compound A1876, 3-(3-chloro-2-fluorophenyl)-4-(4-chloro-2-fluorophenyl)-N-{4-[(14-{2-[(9S)-7-(4-chlorophenyl)-4,5,13-trimethyl-3-thia-1,8,11,12-tetraazatricyclo[8.3.0.0^2,^6]-trideca-2(6),4,7,10,12-pentaen-9-yl]acetamido}-3,6,9,12-tetraoxatetradecan-1-yl)carbamoyl]-2-methoxyphenyl}-4-cyano-5-(2,2-dimethylpropyl)pyrrolidine-2-carboxamide]
B (25 to 50% degradation at 1 μM) | COc1cc(C(=O)NCCOCCOCCOCCNC(=O)C[C@@H]2N=C(c3ccc(Cl)cc3)c3c(sc(C)c3C)-n3c(C)nnc32)ccc1NC(=O)C1N[C@@H](CC(C)(C)C)[C@](C#N)(c2ccc(Cl)cc2F)[C@H]1c1cccc(Cl)c1F (stereo partly drawn) [Compound A1829, 3-(3-chloro-2-fluorophenyl)-4-(4-chloro-2-fluorophenyl)-N-{4-[(2-{2-[2-(2-{2-[(9S)-7-(4-chlorophenyl)-4,5,13-trimethyl-3-thia-1,8,11,12-tetraazatricyclo[8.3.0.0^2,^6]trideca-2(6),4,7,10,12-pentaen-9-yl]acetamido}ethoxy)ethoxy]ethoxy}ethyl)carbamoyl]-2-methoxyphenyl}-4-cyano-5-(2,2-dimethylpropyl)pyrrolidine-2-carboxamide]
B (25 to 50% degradation at 1 μM) | COc1cc(C(=O)NCCOCCOCCOCCNC(=O)C[C@@H]2N=C(c3ccc(Cl)cc3)c3c(sc(C)c3C)-n3c(C)nnc32)ccc1NC(=O)[C@@H]1N[C@@H](CC(C)(C)C)[C@](C#N)(c2ccc(Cl)cc2F)[C@H]1c1cccc(Cl)c1F [Compound A1874, (2R,3S,4R,5S)-3-(3-chloro-2-fluorophenyl)-4-(4-chloro-2-fluorophenyl)-N-{4-[(2-{2-[2-(2-{2-[(9S)-7-(4-chlorophenyl)-4,5,13-trimethyl-3-thia-1,8,11,12-tetraazatricyclo[8.3.0.0^2,^6]trideca-2(6),4,7,10,12-pentaen-9-yl]acetamido}ethoxy)ethoxy]ethoxy}ethyl)carbamoyl]-2-methoxyphenyl}-4-cyano-5-(2,2-dimethylpropyl)pyrrolidine-2-carboxamide]
A (0 to 25% degradation at 1 μM) | COc1cc(C(=O)NCCOCCOCCOCCNC(=O)C[C@@H]2N=C(c3ccc(Cl)cc3)c3c(sc(C)c3C)-n3c(C)nnc32)ccc1NC(=O)[C@H]1N[C@H](CC(C)(C)C)[C@@](C#N)(c2ccc(Cl)cc2F)[C@@H]1c1cccc(Cl)c1F [Compound A1875, (2S,3R,4S,5R)-3-(3-chloro-2-fluorophenyl)-4-(4-chloro-2-fluorophenyl)-N-{4-[(2-{2-[2-(2-{2-[(9S)-7-(4-chlorophenyl)-4,5,13-trimethyl-3-thia-1,8,11,12-tetraazatricyclo[8.3.0.0^2,^6]trideca-2(6),4,7,10,12-pentaen-9-yl]acetamido}ethoxy)ethoxy]ethoxy}ethyl)carbamoyl]-2-methoxyphenyl}-4-cyano-5-(2,2-dimethylpropyl)pyrrolidine-2-carboxamide]

test system: p53; assay: Western blot of HCT116 cells, p53 level; assay type: cell-based, human; conditions: Western blot (FIG. 2, FIG. 3)

SMILES | p53 level increase
COc1cc(C(=O)NCCOCCOCC(=O)N[C@H](C(=O)N2C[C@H](O)C[C@H]2C(=O)NCc2ccc(-c3scnc3C)cc2)C(C)(C)C)ccc1NC(=O)[C@@H]1N[C@@H](CC(C)(C)C)[C@](C#N)(c2ccc(Cl)cc2F)[C@H]1c1cccc(Cl)c1F [Compound A1907] | dose dependent p53 level increase
COc1cc(C(=O)NCCOCCOCCOCCOCC(=O)N[C@H](C(=O)N2C[C@H](O)C[C@H]2C(=O)NCc2ccc(-c3scnc3C)cc2)C(C)(C)C)ccc1NC(=O)[C@@H]1N[C@@H](CC(C)(C)C)[C@](C#N)(c2ccc(Cl)cc2F)[C@H]1c1cccc(Cl)c1F (single isomer, unassigned) [Compound A1896] | dose dependent p53 level increase
